Laboratory results published in patent US12545639B2, “3-substituted phenylamidine compounds, preparation and use thereof” (PI INDUSTRIES LTD., priority 2019, dated 2026).

Tests used:
Botrytis cinerea = Botrytis cinerea (gray mold) in vitro test, radial growth on potato dextrose agar; format: cell-based; details: 168 h, 300 ppm in potato dextrose agar, 22° C., 90% relative humidity, seven days, read-out: control compared to the untreated check (radial growth)
Alternaria solani = Alternaria solani (early blight of tomato/potato) in vitro test, radial growth on potato dextrose agar; format: cell-based; details: 168 h, 300 ppm in potato dextrose agar, 25° C., 60% relative humidity, seven days, read-out: control compared to the untreated check (radial growth)
Rhizoctonia solani = Rhizoctonia solani (rice sheath blight/potato black scurf) in vitro test, radial growth on potato dextrose agar; format: cell-based; details: 168 h, 300 ppm in potato dextrose agar, 25° C., 60% relative humidity, seven days, read-out: control compared to the untreated check (radial growth)
Phakopsora pachyrhizi = Phakopsora pachyrhizi test in soybean, preventive, in vivo on plants; details: in Glycine max, read-out: Efficacy (% control), disease severity compared to the untreated check
Pyricularia oryzae = experiment: microbe, parasite or virus in culture; format: cell-based; details: 168 h, read-out: control compared to the untreated check (radial growth)
Colletotrichum capsici = Colletotrichum capsici (anthracnose) in vitro test, radial growth on potato dextrose agar; format: cell-based; details: Colletotrichum truncatum, 168 h; 300 ppm in potato dextrose agar; 25° C., 60% relative humidity, seven days; read-out: control compared to the untreated check (radial growth)

CCN(C)C=Nc1cc(C)cc(Cc2ccccc2C(F)(F)F)c1Cl [Compound 21, N′-(2-chloro-5-methyl-3-(2-(trifluoromethyl)benzyl)phenyl)-N-ethyl-N-methylformimidamide]
≥ 70%: inhibition of growth at 300 ppm (Botrytis cinerea) | inhibition of growth at 300 ppm (Alternaria solani) | inhibition of growth at 300 ppm (Rhizoctonia solani) | pest or weed control at 500 ppm (Phakopsora pachyrhizi) | inhibition of growth at 300 ppm (Pyricularia oryzae) | inhibition of growth at 300 ppm (Colletotrichum capsici)

CCN(C)C=Nc1cc(C)cc(N(C)c2ccc(Cl)cc2)c1Cl [Compound 62, N′-(2-chloro-3-((4-chlorophenyl)(methyl)amino)-5-methylphenyl)-N-ethyl-N-methylformimidamide]
≥ 70%: inhibition of growth at 300 ppm (Botrytis cinerea) | inhibition of growth at 300 ppm (Alternaria solani) | inhibition of growth at 300 ppm (Colletotrichum capsici)

CCN(C)C=Nc1cc(Cl)cc(Cc2ccccc2C(F)(F)F)c1C [Compound 244, N′-(5-chloro-2-methyl-3-(2-(trifluoromethyl)benzyl)phenyl)-N-ethyl-N-methylformimidamide]
≥ 70%: inhibition of growth at 300 ppm (Botrytis cinerea) | inhibition of growth at 300 ppm (Alternaria solani) | inhibition of growth at 300 ppm (Rhizoctonia solani) | inhibition of growth at 300 ppm (Pyricularia oryzae) | inhibition of growth at 300 ppm (Colletotrichum capsici)

CCN(C)C=Nc1cc(C)cc(Nc2cccc(Cl)c2)c1Cl [Compound 34, N′-(2-chloro-3-((3-chlorophenyl)amino)-5-methylphenyl)-N-ethyl-N-methylformimidamide]
≥ 70%: inhibition of growth at 300 ppm (Botrytis cinerea) | inhibition of growth at 300 ppm (Alternaria solani) | inhibition of growth at 300 ppm (Rhizoctonia solani) | pest or weed control at 500 ppm (Phakopsora pachyrhizi) | inhibition of growth at 300 ppm (Pyricularia oryzae) | inhibition of growth at 300 ppm (Colletotrichum capsici)

CCN(C)C=Nc1cc(C)cc(Cc2cccc(Cl)c2)c1Cl [Compound 27, N′-(2-chloro-3-(3-chlorobenzyl)-5-methylphenyl)-N-ethyl-N-methylformimidamide]
≥ 70%: inhibition of growth at 300 ppm (Botrytis cinerea) | inhibition of growth at 300 ppm (Alternaria solani) | inhibition of growth at 300 ppm (Rhizoctonia solani) | inhibition of growth at 300 ppm (Colletotrichum capsici)

CCN(C)C=Nc1cc(F)cc(Cc2ccc(Cl)cc2)c1C [Compound 172, N′-(3-(4-chlorobenzyl)-5-fluoro-2-methylphenyl)-N-ethyl-N-methylformimidamide]
≥ 70%: inhibition of growth at 300 ppm (Botrytis cinerea) | inhibition of growth at 300 ppm (Alternaria solani) | inhibition of growth at 300 ppm (Rhizoctonia solani) | inhibition of growth at 300 ppm (Pyricularia oryzae) | inhibition of growth at 300 ppm (Colletotrichum capsici)

CCN(C)C=Nc1cc(F)cc(Cc2ccc(C)cc2)c1C [Compound 171, N-ethyl-N′-(5-fluoro-2-methyl-3-(4-methylbenzyl)phenyl)-N-methylformimidamide]
≥ 70%: inhibition of growth at 300 ppm (Botrytis cinerea) | inhibition of growth at 300 ppm (Alternaria solani) | inhibition of growth at 300 ppm (Rhizoctonia solani) | inhibition of growth at 300 ppm (Pyricularia oryzae) | inhibition of growth at 300 ppm (Colletotrichum capsici)

CCN(C)C=Nc1cc(C)cc(N(C)c2cccc(F)c2)c1Cl [Compound 40, N′-(2-chloro-3-((3-fluorophenyl)(methyl)amino)-5-methylphenyl)-N-ethyl-N-methylformimidamide]
≥ 70%: inhibition of growth at 300 ppm (Botrytis cinerea) | inhibition of growth at 300 ppm (Alternaria solani) | pest or weed control at 500 ppm (Phakopsora pachyrhizi) | inhibition of growth at 300 ppm (Pyricularia oryzae) | inhibition of growth at 300 ppm (Colletotrichum capsici)

CCN(C)C=Nc1cc(Cl)cc(Cc2cccc(Br)c2)c1C [Compound 245, N′-(3-(3-bromobenzyl)-5-chloro-2-methylphenyl)-N-ethyl-N-methylformimidamide]
≥ 70%: inhibition of growth at 300 ppm (Botrytis cinerea) | inhibition of growth at 300 ppm (Alternaria solani) | inhibition of growth at 300 ppm (Rhizoctonia solani) | inhibition of growth at 300 ppm (Pyricularia oryzae) | inhibition of growth at 300 ppm (Colletotrichum capsici)

CCN(C)C=Nc1cc(C)cc(N(C)c2cccc(Cl)c2)c1Cl [Compound 41, N′-(2-chloro-3-((3-chlorophenyl)(methyl)amino)-5-methylphenyl)-N-ethyl-N-methylformimidamide]
≥ 70%: inhibition of growth at 300 ppm (Botrytis cinerea) | inhibition of growth at 300 ppm (Alternaria solani) | pest or weed control at 500 ppm (Phakopsora pachyrhizi) | inhibition of growth at 300 ppm (Pyricularia oryzae) | inhibition of growth at 300 ppm (Colletotrichum capsici)
